In test [1] the test system is MCF-7. The test is described as follows: Cytotoxicity assay (SRB), MCF-7. The format is cell-based. The following applies: Homo sapiens, MCF7, 72 h, MCF-7 cells, SRB, three days; read-out: In Vitro Cellular Activity IC50 MCF-7. An outline of the steps:
(§1)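 Overnight-seeded monolayers (4000–12000 cells/well by line) receive compound in 5% FBS medium at 37 °C, 7% CO2. After 3 d, or 6 d for BT474, cellular protein is fixed with cold TCA, stained with SRB and read at 540 nm against untreated wells.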

Test [2] has as its system BT474. The test is described as follows: Cytotoxicity assay (SRB), BT474. The format is cell-based. The following applies: Homo sapiens, BT-474, 144 h, BT474 cells, SRB, 6 days; read-out: In Vitro Cellular Activity IC50 BT474. A digest of the protocol:
as §1

Test [3] deals with LoVo. The test can be described thus: Cytotoxicity assay (SRB), LoVo. The format is cell-based. Conditions: Homo sapiens, LoVo, 72 h, LoVo cells, SRB, three days; read-out: In Vitro Cellular Activity IC50 LOVO. An outline of the steps: as §1
Test [4] concerns the target T1, cyclin D1/cdk 4 enzyme (Homo sapiens, UniProt P11802).
T1 construct: made in house; host or cells: Sf9 insect cells, recombinant baculovirus
The test can be described thus: CDK4 ELISA kinase assay (phospho-Rb ser 795 detection). Format: biochemical. Conditions: In Vitro Enzyme Assays, 200 μM ATP, read-out: CDK4 IC50. A digest of the protocol:
(§2)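 Partially purified Sf9-expressed cyclin D1/CDK4, cyclin E/CDK2 or cyclin B/CDK1 phosphorylated plate-bound GST-Rb C-terminal fragment with 200 μM ATP at 30° C for 1 h.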
Background: An ELISA detects its analyte on a solid surface through an enzyme-linked reagent.

Test [5] addresses T2, cyclin E/CDK2 enzyme (Homo sapiens, UniProt P24941).
T2 construct: made in house; host or cells: Sf9 insect cells, recombinant baculovirus
The test can be described thus: CDK2 ELISA kinase assay (phospho-Rb ser 795 detection). The following applies: In Vitro Enzyme Assays, read-out: CDK2 IC50. The format is biochemical. An outline of the steps: as §2

Test [6] deals with T3, cyclin B/CDK1 enzyme (Homo sapiens, UniProt P06493).
T3 construct: purchased New England BioLabs; host or cells: Sf9 insect cells, recombinant baculovirus
The test can be described thus: CDK1 ELISA kinase assay (phospho-Rb ser 795 detection). Format: biochemical. The following applies: In Vitro Enzyme Assays, read-out: CDK1 IC50. A digest of the protocol:
as §2

For test [7], the system named is HCT-116. The test is described as follows: Cytotoxicity assay (SRB), HCT-116. The format is cell-based. The following applies: Homo sapiens, HCT-116, 72 h, HCT116 cells, SRB, three days; read-out: In Vitro Cellular Activity IC50 HCT116. An outline of the steps:
as §1

pIC50: −log10 of the molar value.

T3 sequence (P06493 whole entry): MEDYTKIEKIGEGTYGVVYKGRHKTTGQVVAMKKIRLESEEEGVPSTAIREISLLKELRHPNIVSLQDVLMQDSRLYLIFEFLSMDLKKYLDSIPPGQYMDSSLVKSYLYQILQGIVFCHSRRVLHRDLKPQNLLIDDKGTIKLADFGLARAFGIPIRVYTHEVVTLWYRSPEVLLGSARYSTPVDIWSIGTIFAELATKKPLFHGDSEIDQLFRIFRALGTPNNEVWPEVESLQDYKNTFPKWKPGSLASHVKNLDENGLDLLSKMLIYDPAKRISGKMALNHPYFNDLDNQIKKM
T3 sequence (P14635 whole entry partner): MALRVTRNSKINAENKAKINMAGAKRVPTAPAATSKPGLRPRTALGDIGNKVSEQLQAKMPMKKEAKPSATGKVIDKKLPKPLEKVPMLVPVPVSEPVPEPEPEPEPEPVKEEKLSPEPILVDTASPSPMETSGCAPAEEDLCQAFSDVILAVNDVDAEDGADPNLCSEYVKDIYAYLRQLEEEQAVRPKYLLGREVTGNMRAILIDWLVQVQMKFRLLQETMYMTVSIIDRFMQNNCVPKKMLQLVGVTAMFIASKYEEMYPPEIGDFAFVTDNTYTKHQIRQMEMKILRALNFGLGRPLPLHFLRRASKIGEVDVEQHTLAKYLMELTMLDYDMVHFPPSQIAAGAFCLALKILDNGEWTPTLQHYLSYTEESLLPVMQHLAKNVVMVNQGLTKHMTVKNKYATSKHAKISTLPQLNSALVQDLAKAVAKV
T1 sequence (P11802 whole entry, species assumed): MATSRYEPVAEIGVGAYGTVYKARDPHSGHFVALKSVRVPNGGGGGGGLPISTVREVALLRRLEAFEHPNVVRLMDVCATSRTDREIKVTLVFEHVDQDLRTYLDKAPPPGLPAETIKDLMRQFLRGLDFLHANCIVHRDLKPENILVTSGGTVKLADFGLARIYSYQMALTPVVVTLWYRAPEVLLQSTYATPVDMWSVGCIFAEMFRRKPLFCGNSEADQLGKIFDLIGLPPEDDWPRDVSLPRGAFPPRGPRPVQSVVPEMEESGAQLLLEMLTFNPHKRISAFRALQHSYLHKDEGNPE
T1 sequence (P24385 whole entry partner, species assumed): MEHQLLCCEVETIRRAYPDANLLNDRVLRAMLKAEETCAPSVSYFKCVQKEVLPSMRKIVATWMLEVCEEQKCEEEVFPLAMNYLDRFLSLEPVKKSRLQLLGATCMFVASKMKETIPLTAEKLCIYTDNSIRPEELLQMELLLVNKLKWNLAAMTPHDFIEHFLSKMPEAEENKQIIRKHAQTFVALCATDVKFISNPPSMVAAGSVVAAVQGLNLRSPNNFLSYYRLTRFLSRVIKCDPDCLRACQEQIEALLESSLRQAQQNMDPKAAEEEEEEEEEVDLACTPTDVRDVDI

`CN(CCO)c1ccc(N/C=C2\C(=O)NC(=O)c3ccc(Br)cc32)cc1` [Example 244, (4Z)-6-Bromo-4-[({4-[(2-hydroxyethyl)(methyl)amino]phenyl}amino)methylene]isoquinoline-1,3(2H,4H)-dione]: the pIC50 in test [1] was 4.72; in test [2], 5.03; in test [3], 4.82; in test [4], 4.34; in test [5], less than 4.30; in test [6], less than 4.30. Moreover, in test [7], the pIC50 was 5.31.
For the compound `CN1CCC(N(C)c2ccc(N/C=C3\C(=O)NC(=O)c4ccc(Br)cc43)cc2)C1` (stereo not shown) [Example 245, (4Z)-6-Bromo-4-[({4-[methyl(1-methylpyrrolidin-3-yl)amino]phenyl}amino)methylene]isoquinoline-1,3(2H,4H)-dione], the pIC50 in test [1] is 5.52; in test [2] it was 5.08; in test [3], 5.18; in test [4], 5.70; in test [5] it was less than 4.30; in test [6], less than 4.30. Also, in test [7], the pIC50 was 5.47.
Consider `CN(CCN1CCCC1)c1ccc(N/C=C2\C(=O)NC(=O)c3ccc(Br)cc32)cc1` [Example 255, (4Z)-6-Bromo-4-[({4-[methyl(2-pyrrolidin-1-ylethyl)amino]phenyl}amino)methylene]isoquinoline-1,3(2H,4H)-dione], for which the pIC50 in test [1] is 5.44; in test [2], 5.10; in test [3], 5.42; in test [4], 5.60; in test [5] it was less than 4.30; in test [6] it was less than 4.30. Besides, in test [7], the pIC50 is 5.51.
In the case of `CN(CCN1CCCCC1)c1ccc(N/C=C2\C(=O)NC(=O)c3ccc(Br)cc32)cc1` [Example 256, (4Z)-6-Bromo-4-[({4-[methyl(2-piperidin-1-ylethyl)amino]phenyl}amino)methylene]isoquinoline-1,3(2H,4H)-dione], the pIC50 in test [1] is 5.28; in test [2], 5.12; in test [3], 5.44; in test [4], 5.37; in test [5], less than 4.30; in test [6], less than 4.30. The pIC50 in test [7] was 5.51.
On to `CN(C)CCOc1ccc(N/C=C2\C(=O)NC(=O)c3ccc(Br)cc32)cc1` [Example 258, (4Z)-6-Bromo-4-[({4-[2-(dimethylamino)ethoxy]phenyl}amino)methylene]isoquinoline-1,3(2H,4H)-dione], for which the pIC50 in test [1] was 5.17; in test [2] it was 5.08; in test [3], 5.28; in test [4], 6.32; in test [5], less than 4.30; in test [6], less than 4.30. The pIC50 in test [7] is 5.46.
As to `CN1Cc2ccc(N/C=C3\C(=O)NC(=O)c4ccc(Br)cc43)cc2C1` [Example 259, (4Z)-6-Bromo-4-{[(2-methyl-2,3-dihydro-1H-isoindol-5-yl)amino]methylene}isoquinoline-1,3(2H,4H)-dione], the pIC50 in test [1] is 5.26; in test [2], 5.17; in test [3], 5.41; in test [4] it was 5.92; in test [5], 5.60; in test [6], 4.68. Further, the pIC50 in test [7] is 5.60.
In the case of `O=C1NC(=O)c2ccc(Br)cc2/C1=C/Nc1ccc(-n2ccnc2)cc1` [Example 260, (4Z)-6-Bromo-4-({[4-(1H-imidazol-1-yl)phenyl]amino}methylene)isoquinoline-1,3(2H,4H)-dione], the pIC50 in test [1] is less than 4.30; in test [2], less than 4.30; in test [3], less than 4.30; in test [4], 4.65; in test [5] it was 4.83; in test [6] it was less than 4.30. The pIC50 in test [7] was 5.27.

Usually pIC50 stands for the IC50 on a negative log10 scale, so that one unit is a factor of ten.
